#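 96-well plates; 48 h exposure; 5 concentrations. Endpoints by linear interpolation between flanking doses. Not reached: highest tested concentration assigned. Abbreviation: GI50, concentration required for 50% inhibition of growth. The concentration for full growth arrest is given as TGI.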
# How the values were obtained:
# Test in all cases: inhibition of tumour cell growth, NCI panel, 48 h
# [1] = system: NCI-H226 lung
# [2] = system: NCI-H460 lung
# [3] = system: CCRF-CEM leukemia
# [4] = system: SW-620 colon
# [5] = system: SK-MEL-5 melanoma
# [6] = system: SK-MEL-2 melanoma
# [7] = system: RXF 393 renal
# [8] = system: HOP-62 NSCLC
# [9] = system: MDA-MB-435
# [10] = system: UACC-257 melanoma
# [11] = system: SK-OV-3 ovarian
# [12] = system: 786-0 renal
# [13] = system: KM12 colon
# [14] = system: SNB-75 CNS
# [15] = system: DU-145 prostate
# [16] = system: A498 renal
# [17] = system: RPMI-8226 leukemia
# [18] = system: SR leukemia
# [19] = system: MOLT-4 leukemia
# [20] = system: OVCAR-5 ovarian
# [21] = system: CAKI-1 renal
# [22] = system: SF-295 CNS
# [23] = system: A549 NSCLC
# [24] = system: U251 CNS
# [25] = system: HS 578T breast
# [26] = system: OVCAR-3 ovarian
# [27] = system: SN12C renal
# [28] = system: HL-60(TB) leukemia
# [29] = system: UO-31 renal
# [30] = system: NCI-H522 lung
# [31] = system: NCI/ADR-RES ovarian
# [32] = system: SF-539 CNS
# [33] = system: MCF7 breast
# [34] = system: MDA-MB-231 breast
# [35] = system: ACHN renal
# [36] = system: BT-549 breast
# [37] = system: TK-10 renal
# [38] = system: HCT-15 colon
# [39] = system: MALME-3M melanoma
# [40] = system: COLO 205 colon
# [41] = system: T-47D breast
# [42] = system: UACC-62 melanoma
# [43] = system: HCT-116 colon
# [44] = system: HT29 colon
# [45] = system: OVCAR-4 ovarian
# [46] = system: SNB-19 CNS
# [47] = system: K-562 leukemia
# [48] = system: IGROV1 ovarian
# [49] = system: HOP-92 NSCLC
# [50] = system: SK-MEL-28 melanoma
# [51] = system: HCC-2998 colon
# [52] = system: OVCAR-8 ovarian
# [53] = system: M14 melanoma
# [54] = system: EKVX NSCLC
# [55] = system: PC-3 prostate
# [56] = system: LOX IMVI melanoma
# [57] = system: SF-268 CNS
structure (smiles),measurement,setting,value
CCOc1ccc(-c2nnc(C3CC(NC(=O)c4cccc5nccnc45)C3)n2-c2ccccc2F)nc1 (configuration not stated),GI50,[1],13.1 µM
same,TGI,[1],41.5 µM
same,GI50,[2],26.9 µM
same,TGI,[2],> 100 µM
same,GI50,[3],21.3 µM
same,TGI,[3],59.7 µM
same,GI50,[4],31.9 µM
same,TGI,[4],> 100 µM
same,GI50,[5],14.2 µM
same,TGI,[5],27.4 µM
same,GI50,[6],14.8 µM
same,TGI,[6],36.4 µM
same,GI50,[7],6.82 µM
same,TGI,[7],21.5 µM
same,GI50,[8],12.7 µM
same,TGI,[8],36.9 µM
same,GI50,[9],21.2 µM
same,TGI,[9],51.5 µM
same,GI50,[10],19.6 µM
same,TGI,[10],51 µM
same,GI50,[11],13.6 µM
same,TGI,[11],38.2 µM
same,GI50,[12],17.6 µM
same,TGI,[12],> 100 µM
same,GI50,[13],23.6 µM
same,TGI,[13],60.1 µM
same,GI50,[14],13.2 µM
same,TGI,[14],46.4 µM
same,GI50,[15],25.9 µM
same,TGI,[15],> 100 µM
same,GI50,[16],8.31 µM
same,TGI,[16],58.6 µM
same,GI50,[17],12.9 µM
same,TGI,[17],35.3 µM
same,GI50,[18],16.5 µM
same,TGI,[18],52.9 µM
same,GI50,[19],14.8 µM
same,TGI,[19],39.9 µM
same,GI50,[20],18.2 µM
same,TGI,[20],52.8 µM
same,GI50,[21],14.3 µM
same,TGI,[21],> 100 µM
same,GI50,[22],18.7 µM
same,TGI,[22],39.7 µM
same,GI50,[23],24.2 µM
same,TGI,[23],> 100 µM
same,GI50,[24],10.7 µM
same,TGI,[24],29.8 µM
same,GI50,[25],16.3 µM
same,TGI,[25],94.8 µM
same,GI50,[26],13.3 µM
same,TGI,[26],36.1 µM
same,GI50,[27],14.7 µM
same,TGI,[27],50.5 µM
same,GI50,[28],20.9 µM
same,TGI,[28],48.3 µM
same,TGI,[29],> 100 µM
same,GI50,[30],14.9 µM
same,TGI,[30],34.2 µM
same,GI50,[31],19.2 µM
same,TGI,[31],92.9 µM
same,GI50,[32],14.6 µM
same,TGI,[32],29.2 µM
same,GI50,[33],21.4 µM
same,TGI,[33],90.7 µM
same,GI50,[34],17.7 µM
same,TGI,[34],51.8 µM
same,GI50,[35],15.1 µM
same,TGI,[35],29.8 µM
same,GI50,[36],10.9 µM
same,TGI,[36],23.7 µM
same,TGI,[37],31.1 µM
same,GI50,[38],23.2 µM
same,TGI,[38],89 µM
same,GI50,[39],17.4 µM
same,TGI,[39],47.2 µM
same,GI50,[40],19.1 µM
same,TGI,[40],50.9 µM
same,GI50,[41],7.24 µM
same,TGI,[41],39.6 µM
same,GI50,[42],17.5 µM
same,TGI,[42],38.4 µM
same,GI50,[43],16 µM
same,TGI,[43],36.2 µM
same,GI50,[44],15.1 µM
same,TGI,[44],32.4 µM
same,GI50,[45],12.2 µM
same,TGI,[45],> 100 µM
same,GI50,[46],24.5 µM
same,TGI,[46],> 100 µM
same,GI50,[47],24.1 µM
same,TGI,[47],> 100 µM
same,GI50,[48],17 µM
same,TGI,[48],> 100 µM
same,GI50,[49],4.02 µM
same,TGI,[49],40 µM
same,GI50,[50],19.3 µM
same,TGI,[50],48.1 µM
same,GI50,[51],18.3 µM
same,TGI,[51],35.3 µM
same,GI50,[52],22.8 µM
same,TGI,[52],> 100 µM
same,GI50,[53],16.2 µM
same,TGI,[53],32.9 µM
same,GI50,[54],27 µM
same,TGI,[54],> 100 µM
same,GI50,[55],21.1 µM
same,TGI,[55],86.9 µM
same,GI50,[56],17.5 µM
same,TGI,[56],36.7 µM
same,GI50,[57],20.4 µM
same,TGI,[57],> 100 µM
